# Measured values as given in patent US20120108592A1, “PHARMACEUTICAL COMPOSITIONS AND METHODS OF USE OF SALICYLANILIDES FOR TREATMENT OF HEPATITIS VIRUSES” (priority 2010, published 2012).
# Several values for one entry are separate records, joined by “and”; a condition that tells them apart may be missing. Identical values can stand only once.
# Columns and labels:
# [1] = test system: HCV replicon cell line, AVA5 (sub-genomic CONI, genotype 1b); experiment: Primary HCV replicon cell assay, antiviral activity (intracellular HCV RNA, blot hybridization); type: cell-based; settings: Hepatitis C virus, Ava5, 72 h, 3-day assay; for EC50: 2-fold depression of intracellular HCV RNA; for EC90: 10-fold depression of intracellular HCV RNA
# Experimental: (§1) Antiviral activity of test compounds was assessed in a 3-day assay using the stably-expressing HCV replicon cell line, AVA5 (sub-genomic CONI, genotype 1b) [Korba, B. E. et al. Antiviral Res. 77, 56-63 (2008); Blight et al., Science 290, 1972-1974 (2000)] maintained as sub-confluent cultures on 96-well plates as previously described [Okuse et al., Antiviral Research 65, 23-34 (2005)]. Antiviral activity was determined by blot hybridization analysis of intracellular HCV RNA (normalized to the level of cellular B-actin RNA in each culture sample) and cytotoxicity was assessed by neutral red dye uptake after 3 days of treatment. Additional studies were performed using Huh7 cells containing another HCV replicon, H/FL-Neo, a genotype la full length construct [Blight et al., J. Virol. 77, 3181-3190 (2003)]. For studies involving human serum, standard culture medium (which contains 10% fetal bovine serum) and assay conditions were maintained.
# (§2) EC50, EC90 and CC50 values (±standard deviations [S.D.]) were calculated by linear regression analysis using data combined from all treated cultures (Korba, B. E. et al. Antiviral Res. 77, 56-63 (2008)). […] Selectivity index (S.I.) was calculated as CC50/EC90 for HBV assays and CC50/EC50 for HCV assays.
# [2] = Primary HCV replicon cell assay, cytotoxicity (neutral red dye uptake); type: cell-based; settings: human, AVA5 HCV replicon cells (sub-genomic CON1, genotype 1b), 3 days of treatment
# Experimental: (§3) Antiviral activity of test compounds was assessed in a 3-day assay using the stably-expressing HCV replicon cell line, AVA5 (sub-genomic CONI, genotype 1b) [Korba, B. E. et al. Antiviral Res. 77, 56-63 (2008); Blight et al., Science 290, 1972-1974 (2000)] maintained as sub-confluent cultures on 96-well plates as previously described [Okuse et al., Antiviral Research 65, 23-34 (2005)]. Antiviral activity was determined by blot hybridization analysis of intracellular HCV RNA (normalized to the level of cellular B-actin RNA in each culture sample) and cytotoxicity was assessed by neutral red dye uptake after 3 days of treatment. Additional studies were performed using Huh7 cells containing another HCV replicon, H/FL-Neo, a genotype la full length construct [Blight et al., J. Virol. […] For studies involving human serum, standard culture medium (which contains 10% fetal bovine serum) and assay conditions were maintained.
# [3] = test system: HCV replicon cell line, AVA5 (sub-genomic CONI, genotype 1b); experiment: Secondary HCV replicon cell assay genotype 1b, antiviral activity; type: cell-based; settings: Hepatitis C virus; for EC50: 2-fold depression of intracellular HCV RNA; for EC90: 10-fold depression of intracellular HCV RNA
# Experimental: as §1, §2
# [4] = Secondary HCV replicon cell assay genotype 1b, cytotoxicity (neutral red dye uptake); type: cell-based; settings: human, AVA5 HCV replicon cells (sub-genomic CON1)
# Experimental: as §3
# [5] = test system: HCV replicon H/FL-Neo, genotype 1a full length construct, in Huh7 cells; experiment: Secondary HCV replicon cell assay genotype 1a, antiviral activity; type: cell-based; settings: Hepatitis C virus; for EC50: Huh-7, 2-fold depression of intracellular HCV RNA; for EC90: Huh-7, 10-fold depression of intracellular HCV RNA
# Experimental: as §1, §2
# [6] = Secondary HCV replicon cell assay genotype 1a, cytotoxicity (neutral red dye uptake); type: cell-based; settings: human
# Experimental: as §3
# [7] = test system: HBV virion in 2.2.15 cells; experiment: HBV antiviral assay in 2.2.15 cells, virion (VIR) HBV DNA; type: cell-based; settings: Hepatitis B virus, HBV virion DNA, 2.2.15 cells, nine daily doses; for EC50: read-out: EC50 (VIR); for EC90: read-out: EC90 (VIR)
# Experimental: (§4) HBV antiviral assays were conducted as previously described [Korba, B. E. et al. Antiviral Res. 77, 56-63 (2008);].
# [8] = Cytotoxicity in 2.2.15 cells (neutral red dye uptake); type: cell-based; settings: human, nine daily doses
# Experimental: Briefly, confluent cultures of 2.2.15 cells were maintained on 96-well flat-bottomed tissue culture plates (confluence in this culture system is required for active, high levels of HBV replication equivalent to that observed in chronically-infected individuals. Cultures were treated with nine consecutive daily doses of the test compounds. HBV DNA levels were assessed by quantitative blot hybridization 24 hr. after the last treatment. Cytotoxicity was assessed by uptake of neutral red dye 24 hr. following the last treatment.
# [9] = test system: HBV replication intermediates in 2.2.15 cells; experiment: HBV antiviral assay in 2.2.15 cells, replication intermediates (RI) HBV DNA; type: cell-based; settings: Hepatitis B virus, HBV replication intermediates, 2.2.15 cells, nine daily doses; for EC50: read-out: EC50 (RI); for EC90: read-out: EC90 (RI)
# Experimental: as §4
melting point,Compound,EC50 [1] [µM],EC90 [1] [µM],CC50 at 3 days [2] [µM],other results
144.8 to 145.8 °C,Cc1cccc(C(=O)Nc2ccc(F)cc2)c1O,,,,
167.3 °C,O=C(O)c1ccccc1C(=O)Nc1ccc(F)cc1,,,,
183.5 °C,O=C(Nc1cccc(Br)c1)c1ccccc1O,,,,
217.5 °C,Cc1cccc(C(=O)Nc2cccc([N+](=O)[O-])c2)c1O,,,,
99.8 to 100.4 °C,Cc1cccc(C(=O)Nc2ccccc2Cl)c1O,,,,
147.2 to 148.2 °C,Cc1cccc(C(=O)Nc2cccc(Br)c2)c1O,,,,
74.2 to 83.4 °C,Cc1cccc(C(=O)Nc2ccccc2F)c1O,,,,
115 to 117 °C,CC(=O)Oc1ccccc1C(=O)Nc1ccccc1S(C)(=O)=O,,,,
142 to 145 °C,CS(=O)(=O)c1ccccc1NC(=O)c1ccccc1O,,,,
51 to 53 °C,CC(=O)Oc1ccccc1C(=O)Nc1cccc(S(C)(=O)=O)c1,,,,
210 to 212 °C,CS(=O)(=O)c1cccc(NC(=O)c2ccccc2O)c1,,,,
184 to 186 °C,CC(=O)Oc1ccccc1C(=O)Nc1ccc(S(C)(=O)=O)cc1,,,,
193 °C and 193 to 196 °C,CS(=O)(=O)c1ccc(NC(=O)c2ccccc2O)cc1,,,,
196 to 198 °C,O=C(Nc1cc(C(F)(F)F)cc(C(F)(F)F)c1)c1ccccc1O,,,,
233 °C,O=C(Nc1ccc([N+](=O)[O-])cc1)c1ccccc1O,,,,
,"O=C(Nc1ccc([N+](=O)[O-])cc1Cl)c1cc(Cl)ccc1O [Compound 6, 5-chloro-N-(2-chloro-4-nitrophenyl)-2-hydroxybenzamide]",0.31,1.2,11,EC50 [3]: 0.1 µM; EC90 [3]: 0.61 µM; CC50 at 3 days [4]: 0.64 µM; EC50 [5]: 0.11 µM; EC90 [5]: 0.82 µM; CC50 at 3 days [6]: 0.79 µM
,"CC(=O)Oc1ccc(Cl)cc1C(=O)Nc1ccc([N+](=O)[O-])cc1Cl [Compound 25, 4-chloro-2-(2-chloro-4-nitrophenylcarbamoyl)phenyl acetate]",0.13,0.82,5.8,EC50 [3]: 0.078 µM; EC90 [3]: 0.31 µM; CC50 at 3 days [4]: 3.4 µM; EC50 [5]: 0.1 µM; EC90 [5]: 0.46 µM; CC50 at 3 days [6]: 4.3 µM
,"CC(=O)Oc1ccccc1C(=O)Nc1ccc(Cl)cc1 [Compound 38, 2-(4-chlorophenylcarbamoyl)phenyl acetate]",,,,EC50 [7]: 3.5 µM; EC90 [7]: 9.7 µM; CC50 at 9 days [8]: > 100 µM
,"CC(=O)Oc1ccccc1C(=O)Nc1ccc(Br)cc1 [Compound 39, 2-(4-bromophenylcarbamoyl)phenyl acetate]",,,,EC50 [7]: 0.76 µM; EC90 [7]: 3 µM; EC50 [9]: 2.1 µM; EC90 [9]: 6.8 µM; CC50 at 9 days [8]: > 100 µM
,"CC(=O)Oc1ccccc1C(=O)Nc1ccc(I)cc1 [Compound 40, 2-(4-iodophenylcarbamoyl)phenyl acetate]",,,,EC50 [7]: 0.2 µM; EC90 [7]: 1.2 µM; EC50 [9]: 0.73 µM; EC90 [9]: 3.3 µM; CC50 at 9 days [8]: > 100 µM
,"Cc1cc([N+](=O)[O-])c(Cl)cc1NC(=O)c1ccccc1O [Compound 42, N-(5-chloro-2-methyl-4-nitrophenyl)-2-hydroxybenzamide]",,,,EC50 [7]: 0.23 µM; EC90 [7]: 0.71 µM; EC50 [9]: 0.68 µM; EC90 [9]: 2.1 µM; CC50 at 9 days [8]: > 100 µM
,"O=C(Nc1ccc(OC(F)(F)C(F)F)cc1)c1ccccc1O [Compound 49, 2-hydroxy-N-(4-(1,1,2,2-tetrafluoroethoxy)phenyl)benzamide]",0.313,1.1,3.9,
,"O=C(Nc1ccc(C(F)(F)F)cc1)c1ccccc1O [Compound 51, 2-hydroxy-N-(4-(trifluoromethyl)phenyl)benzamide]",,,,EC50 [7]: 5.6 µM; EC90 [7]: 21 µM; CC50 at 9 days [8]: > 100 µM
,"CC(=O)Oc1ccccc1C(=O)Nc1cc(C(F)(F)F)ccc1Cl [Compound 52, 2-(2-chloro-5-(trifluoromethyl)phenylcarbamoyl)phenyl acetate]",,,,EC50 [7]: 2.5 µM; EC90 [7]: 9.1 µM; CC50 at 9 days [8]: 59 µM
,"CC(=O)Oc1ccccc1C(=O)Nc1ccc(Cl)c([N+](=O)[O-])c1 [Compound 53, 2-(4-chloro-3-nitrophenylcarbamoyl)phenyl acetate]",,,,EC50 [7]: 2 µM; EC90 [7]: 8.7 µM; CC50 at 9 days [8]: 52 µM
,"CC(=O)Oc1ccccc1C(=O)Nc1cc([N+](=O)[O-])ccc1Cl [Compound 54, 2-(2-chloro-5-nitrophenylcarbamoyl)phenyl acetate]",,,,EC50 [7]: 2.1 µM; EC90 [7]: 8.5 µM; CC50 at 9 days [8]: 65 µM
,"CC(=O)Oc1ccccc1C(=O)Nc1ccc(F)c(F)c1 [Compound 55, 2-(3,4-difluorophenylcarbamoyl)phenyl acetate]",,,,EC50 [7]: 2.2 µM; EC90 [7]: 8.8 µM; CC50 at 9 days [8]: 48 µM

Compound,melting point,EC50 [1] [µM],EC90 [1] [µM],CC50 at 3 days [2] [µM],other results
"O=C(Nc1ccccc1Br)c1ccccc1O [Compound 4, N-(2-bromophenyl)-2-hydroxybenzamide]",165.5 °C,5.8,20,> 100,
"O=C(Nc1cccc([N+](=O)[O-])c1)c1ccccc1O [Compound 7, 2-hydroxy-N-(3-nitrophenyl)benzamide]",222 °C,1.1,6.1,34,
"Cc1cccc(C(=O)Nc2cccc(F)c2)c1O [Compound 9, N-(3-fluorophenyl)-2-hydroxy-3-methylbenzamide]",143.8 to 144.8 °C,1.9,9,40,
"Cc1cccc(C(=O)Nc2cccc(Cl)c2)c1O [Compound 14, N-(3-chlorophenyl)-2-hydroxy-3-methylbenzamide]",148.5 °C,2.8,7.8,35,
"O=C(O)c1ccccc1C(=O)Nc1ccccc1Cl [Compound 15, 2-(2-chlorophenylcarbamoyl)benzoic acid]",145.2 to 145.7 °C,2.9,11,78,
"Cc1cccc(C(=O)Nc2ccc(Cl)cc2)c1O [Compound 20, N-(4-chlorophenyl)-2-hydroxy-3-methylbenzamide]",159.6 to 161.6 °C,6.5,16,> 100,
"O=C(Nc1ccccc1Cl)c1ccccc1O [Compound 23, N-(2-chlorophenyl)-2-hydroxybenzamide]",168.1 to 168.8 °C,3.8,21,72,
"CC(=O)Oc1ccccc1C(=O)Nc1cccc(F)c1 [Compound 24, 2-(3-fluorophenylcarbamoyl)phenyl acetate]",88.5 to 89.7 °C,2.1,6.8,> 100,
"O=C(Nc1cccc(C(F)(F)F)c1)c1ccccc1O [Compound 27, 2-hydroxy-N-(3-(trifluoromethyl)phenyl)benzamide]",188 to 190.6 °C,3.6,11,> 100,
"CC(=O)Oc1ccccc1C(=O)Nc1cc(C(F)(F)F)cc(C(F)(F)F)c1 [Compound 34, 2-(3,5-bis(trifluoromethyl)phenylcarbamoyl)phenyl acetate]",118 to 125 °C,0.44,1.7,4.3,EC50 [3]: 0.91 µM; EC90 [3]: 3.7 µM; CC50 at 3 days [4]: 9.5 µM; EC50 [5]: 0.79 µM; EC90 [5]: 4.7 µM; CC50 at 3 days [6]: 7.8 µM
